Data set [1] is described as follows: Estimation of intestinal luminal concentration (Igut), dose/250 mL. Particulars: estimated from maximum oral amount (AP 10 mg, BHA 8 mg) in 250 mL intestinal fluid. How it is done: Igut is intestinal luminal concentration estimated as dose/250 mL. The Igut concentration was estimated using the following equation: Igut=A÷MW×V×10^6 where Igut is the estimated intestinal luminal concentration (µM), A is the amount of antioxidant in an oral dosage (mg), MW is the molecular weight, and V is the volume of intestinal fluid, i.e., 250 mL.

For data set [2], the system named is MDCK cell tight junctions. As to the kind of experiment: Lucifer yellow permeability assay of MDCK monolayer integrity. As to conditions: BHA 250 µM. It counts as cell-based.
Description: The transport assay was performed using MDCK-hMDR1-cMDR1-KO, MDCK-cMDR1-KO, and MDCK-hBCRP-cMDR1-KO as reported previously with minor modifications [14, 27]. In brief, 133,000 cells were seeded onto a Transwell membrane insert, a semipermeable polyethylene terephthalate membrane. During the differentiation process, the medium volume in the apical chamber was kept at 300 μL, while the basal chamber contained 1000 μL. The cells were allowed to differentiate for 7–9 days at 37 °C in a humidified incubator with 5% CO2. Before starting transporter assays, the integrity of the cell monolayer was checked using lucifer yellow permeability assays. Cells were washed twice with HBSS, lucifer yellow (0.1 mg/mL) in HBSS was added to the apical chamber, and the basal chamber was filled with fresh HBSS. The assembled plate was then incubated at 37 °C for 1 h. From the basal chamber, 100 μL samples were collected for fluorescence measurements using GloMax® Explorer with a 475 nm excitation filter and a 500–550 nm emission filter to calculate the percent permeability per well.
At the end of the transport assay, a lucifer yellow permeability assay was performed as described earlier.
The target of data set [3] is T1, OATP2B1 (Homo sapiens, UniProt O94956).
T1 sequence (O94956 1-709): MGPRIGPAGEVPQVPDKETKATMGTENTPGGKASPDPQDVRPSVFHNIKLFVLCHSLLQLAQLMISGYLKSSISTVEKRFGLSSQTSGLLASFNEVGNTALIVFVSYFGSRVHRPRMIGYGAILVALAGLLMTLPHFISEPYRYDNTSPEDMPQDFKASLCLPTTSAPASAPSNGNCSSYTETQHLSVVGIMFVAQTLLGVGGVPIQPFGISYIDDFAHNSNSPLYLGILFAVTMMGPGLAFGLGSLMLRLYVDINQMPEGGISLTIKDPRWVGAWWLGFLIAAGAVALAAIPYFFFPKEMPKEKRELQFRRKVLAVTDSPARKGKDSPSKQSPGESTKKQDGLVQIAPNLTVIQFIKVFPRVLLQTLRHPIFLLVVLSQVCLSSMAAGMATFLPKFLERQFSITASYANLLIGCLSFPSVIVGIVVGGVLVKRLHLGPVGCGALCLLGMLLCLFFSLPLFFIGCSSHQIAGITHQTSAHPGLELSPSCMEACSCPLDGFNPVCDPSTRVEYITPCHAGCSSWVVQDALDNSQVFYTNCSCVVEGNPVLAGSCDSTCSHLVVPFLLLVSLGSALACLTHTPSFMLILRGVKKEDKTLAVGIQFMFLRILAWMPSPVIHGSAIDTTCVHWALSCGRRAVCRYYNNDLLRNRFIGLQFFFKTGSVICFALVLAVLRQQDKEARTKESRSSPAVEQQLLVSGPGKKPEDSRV
The data set is described as follows: Uptake transporter assay, 3H-estrone sulfate uptake in HEK-293-OATP2B1 cells. Particulars: for IC50: mean ± SD of three independent experiments.
Description: The uptake transporter assay was performed as reported previously with minor modifications [15]. A day before the uptake assay, Isoplate 96-well plates were coated with poly-D-lysine in PBS with calcium and magnesium and washed with PBS. […] An assay mixture of ^3H-estrone sulfate, a known inhibitor of OATP2B1, or an antioxidant was prepared and incubated in a 37 °C incubator for 10 min. The cells were washed with ice-cold HBSS three times and incubated with MicroScint fluid on a shaker for 1 h for cell lysis. Radioactivity was measured by liquid scintillation counting with a MicroBeta^2® microplate counter. […] On the day of experiment, cells were washed twice with 0.4 mL of HBSS per well and then pre-incubated for 10–20 min in 0.4 mL of HBSS. […] Uptake of ^3H-valsartan was stopped after 15 min by washing three times with ice-cold HBSS. Cells were lysed in 750 µL of lysis buffer (0.1 N NaOH and 0.1% SDS in double-distilled water) per well while shaking for 60 min. A total of 690 µL of the lysate from each well was then added to 2.5 mL of EcoLite scintillation fluid. The radioactivity was determined on a LS6500 Scintillation Counter (Beckman Coulter). Protein concentration was measured with a Pierce™ BCA protein assay kit. The radioactivity in each well was corrected for protein concentration. All values were determined in triplicate, and the final values are expressed as % uptake relative to negative control (1% DMSO).
Antioxidants were screened at a concentration of 200 μM.

Data set [4] concerns the target P-gp (human MDR1) (Homo sapiens, UniProt P08183). The data set is described as follows: Transwell transport assay, basal-to-apical digoxin flux in MDCK-hMDR1-cMDR1-KO cells. As to conditions: 3H-digoxin 2.5 µM, 4 h. How it is done:
(§1) The transport assay was performed using MDCK-hMDR1-cMDR1-KO, MDCK-cMDR1-KO, and MDCK-hBCRP-cMDR1-KO as reported previously with minor modifications. In brief, 133,000 cells were seeded onto a Transwell membrane insert, a semipermeable polyethylene terephthalate membrane. During the differentiation process, the medium volume in the apical chamber was kept at 300 μL, while the basal chamber contained 1000 μL. The cells were allowed to differentiate for 7–9 days at 37 °C in a humidified incubator with 5% CO2. Before starting transporter assays, the integrity of the cell monolayer was checked using lucifer yellow permeability assays. […] From the basal chamber, 100 μL samples were collected for fluorescence measurements using GloMax® Explorer with a 475 nm excitation filter and a 500–550 nm emission filter to calculate the percent permeability per well.
(§2) To assess the flux of digoxin or prazosin from the basal to apical side, the cells were washed twice with HBSS. […] All apical and basal samples were mixed with scintillation fluid (EcoLite(+)™ liquid scintillation cocktail), and their radioactivity was measured using liquid scintillation counting (Beckman LS6500). […] For data analysis, the disintegration per minute counts of digoxin or prazosin from the apical samples were converted to picomoles using radioactivity measured in the substrate solution.

For data set [5], the target named is T2, BCRP (Homo sapiens, UniProt Q9UNQ0).
T2 sequence (Q9UNQ0 1-655): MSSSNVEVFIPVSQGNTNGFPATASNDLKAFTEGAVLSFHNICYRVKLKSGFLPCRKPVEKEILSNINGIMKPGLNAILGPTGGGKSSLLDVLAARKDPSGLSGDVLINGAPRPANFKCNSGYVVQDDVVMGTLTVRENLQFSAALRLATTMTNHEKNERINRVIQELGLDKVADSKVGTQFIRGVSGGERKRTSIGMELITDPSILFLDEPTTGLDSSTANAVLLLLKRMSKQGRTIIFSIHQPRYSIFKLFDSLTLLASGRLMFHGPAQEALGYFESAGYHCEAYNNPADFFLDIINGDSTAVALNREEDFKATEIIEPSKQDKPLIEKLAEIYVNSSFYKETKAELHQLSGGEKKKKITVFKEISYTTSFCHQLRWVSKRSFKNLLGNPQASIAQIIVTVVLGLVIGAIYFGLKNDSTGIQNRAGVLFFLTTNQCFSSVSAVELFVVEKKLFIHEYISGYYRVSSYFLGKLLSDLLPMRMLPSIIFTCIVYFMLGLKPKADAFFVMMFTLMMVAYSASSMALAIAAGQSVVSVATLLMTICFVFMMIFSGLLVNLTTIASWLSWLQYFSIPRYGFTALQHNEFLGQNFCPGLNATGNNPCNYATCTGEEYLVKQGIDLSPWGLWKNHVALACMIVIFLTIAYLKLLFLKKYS
As to the kind of experiment: Transwell transport assay, basal-to-apical prazosin flux in MDCK-hBCRP-cMDR1-KO cells. As to conditions: BHA 178 µM on both sides; 3H-prazosin 1 µM; 4 h. As to the method: as §1, §2

Broadly, the IC50 is the concentration that inhibits the measured activity by half.

Entries after “also recorded” stand apart in the source; their conditions may differ. Read-outs that look alike come from different tables or passages of the source.

P-gp (human MDR1), sequence (P08183 whole entry): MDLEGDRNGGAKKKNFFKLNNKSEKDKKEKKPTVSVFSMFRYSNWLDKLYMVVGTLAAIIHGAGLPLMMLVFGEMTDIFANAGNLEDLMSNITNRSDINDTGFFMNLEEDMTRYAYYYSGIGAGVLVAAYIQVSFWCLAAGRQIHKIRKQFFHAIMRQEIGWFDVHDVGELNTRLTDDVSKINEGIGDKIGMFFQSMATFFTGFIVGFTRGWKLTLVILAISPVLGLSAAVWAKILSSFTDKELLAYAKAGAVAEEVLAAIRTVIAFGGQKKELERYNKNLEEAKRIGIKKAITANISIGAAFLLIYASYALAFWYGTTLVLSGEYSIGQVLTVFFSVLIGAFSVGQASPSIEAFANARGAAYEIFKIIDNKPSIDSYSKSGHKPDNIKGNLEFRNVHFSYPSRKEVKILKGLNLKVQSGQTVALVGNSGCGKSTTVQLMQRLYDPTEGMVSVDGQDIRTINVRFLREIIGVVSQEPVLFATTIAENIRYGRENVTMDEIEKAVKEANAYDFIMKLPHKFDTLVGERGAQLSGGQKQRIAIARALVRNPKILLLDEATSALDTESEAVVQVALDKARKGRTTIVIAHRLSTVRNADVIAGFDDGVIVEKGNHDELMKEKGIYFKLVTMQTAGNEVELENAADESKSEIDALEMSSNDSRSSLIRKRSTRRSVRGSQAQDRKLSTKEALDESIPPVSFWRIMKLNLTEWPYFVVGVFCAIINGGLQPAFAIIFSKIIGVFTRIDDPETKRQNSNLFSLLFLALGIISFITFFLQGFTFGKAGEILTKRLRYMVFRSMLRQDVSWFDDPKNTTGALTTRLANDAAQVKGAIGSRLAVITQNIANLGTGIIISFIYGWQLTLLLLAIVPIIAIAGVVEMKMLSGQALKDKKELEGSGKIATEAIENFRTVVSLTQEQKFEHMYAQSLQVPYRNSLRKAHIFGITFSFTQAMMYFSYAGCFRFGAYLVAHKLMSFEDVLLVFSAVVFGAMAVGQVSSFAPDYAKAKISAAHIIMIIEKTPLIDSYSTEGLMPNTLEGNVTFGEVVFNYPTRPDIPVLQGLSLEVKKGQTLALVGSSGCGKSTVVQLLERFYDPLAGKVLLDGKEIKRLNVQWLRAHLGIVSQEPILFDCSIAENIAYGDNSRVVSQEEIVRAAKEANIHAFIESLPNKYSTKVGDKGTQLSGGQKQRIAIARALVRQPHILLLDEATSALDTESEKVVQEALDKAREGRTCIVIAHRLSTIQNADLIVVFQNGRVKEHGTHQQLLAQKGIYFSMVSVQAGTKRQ

For the compound `COc1ccc(O)cc1C(C)(C)C` [Butylated hydroxyanisole (BHA), 2-tert-Butyl-4-hydroxyanisole], in data set [1], the “Max Intestinal Conc (µM) in 250 mL Fluid” value is recorded as 178 µM. Also, in data set [2], the “Effect on MDCK cell tight junctions (lucifer yellow permeability)” value is on record as “disrupted MDCK cell tight junctions”. The “Inhibition of OATP2B1” value in data set [3] (200 µM, 3H-estrone sulfate) is listed as “at least 50%”. For the same compound, the “Effect of 30 min pre-incubation on inhibition potency” value in data set [3] (OATP2B1-expressing cells pre-incubated for 30 min) is given as “did not further affect their inhibition potency”. In data set [3] (antioxidant 200 µM, uptake with DMSO set as 100%, mean ± SD, three replicates, HEK-293-OATP2B1 cells), the “% Uptake of 3H-ES OATP2B1” value turned out to be 19.8 ± 7.1%. The IC50 in data set [3] (read-out: IC50 OATP2B1, substrate 3H-estrone sulfate) is 71 ± 20 µM; in data set [3] (read-out: IC50 with preincubation, OATP2B1 expressing cells pre-incubated 30 minutes) it was 67 ± 12.8 µM; in data set [3] (read-out: IC50 without preincubation, OATP2B1 expressing cells) it was 76.9 ± 15.9 µM. For the same compound, the “Inhibition of digoxin transport (basal to apical)” value in data set [4] (BHA 62.5 µM on both sides) is recorded as “Neither the estimated maximal intestinal concentration of 178 µM nor a lower concentration (62.5 µM) inhibited digoxin transport”; in data set [4] (BHA 178 µM on both sides), “Neither the estimated maximal intestinal concentration of 178 µM nor a lower concentration (62.5 µM) inhibited digoxin transport; also recorded: did not impede digoxin transport”. The “Inhibition of prazosin efflux (basal to apical)” value in data set [5] is listed as “did not inhibit prazosin efflux”.

These data come from publication PMC11124870, “Effect of Antioxidants in Medicinal Products on Intestinal Drug Transporters” (Pharmaceutics, 2024).
